The text below walks through data of PMC10381533, “Inhibitory Effects of the Fungal Pigment Rubiginosin C on Hyphal and Biofilm Formation in Candida albicans and Candida auris” (Journal of Fungi, 2023).

Converted amounts (≈) assume the structure as drawn.

One assay deals with C. albicans [DSM 11225]. As to the kind of experiment: MIC assay, C. albicans DSM 11225. As to conditions: tested 250–2 µg/mL. The class given is cell-based, Candida albicans. The protocol: (§1) The MICs of rubiginosin- and rutilin-type azaphilones—in detail, Rub A, C, W, Z, and Rut A and B—were determined as described previously using the selected pathogens C. albicans [DSM 11225, DSM 1665], C. albicans CAI-4 HWP1-lacZ [ZK3379] and C. auris [DSM 21092] (see Table S1 for detailed information). All compounds were tested within the concentration range of 250 µg/mL–2 µg/mL for C. albicans [DSM 11225, DSM 1665], C. albicans CAI-4 HWP1-lacZ [ZK3379], C. auris [DSM 21092]. […]
(§2) All compounds were fully dissolved in
(§3) The assay was conducted as a minimum inhibitory concentration (MIC) assay in 96-well round-bottom microtiter plates using the parameters summarized in table S1 and as already described in [2]. Stocks of the test organisms were generated by growing the organisms overnight in 250 mL (Candida albicans [DSM 11225], [DSM 1665], CAI-4 HWP1-lacZ, Candida auris [DSM 21092]) or 50 mL shaking (the rest organisms) flasks filled with 25 mL of the growth medium at 140 rpm (for media and temperatures see table S1). After incubation overnight, the OD of the suspension was measured and adjusted by diluting with the respective growth medium. OD600 nm was adjusted to 0.01 for bacteria and OD600 nm to 0.1 for fungi and 150 μL of the adjusted suspensions were added to all wells of a 96-well microtiter plate (one test organism per plate). Subsequently, additional 130 μL (1 mg/mL tested compounds) or 142.5 μL (10 mg/mL tested compounds ) of suspensions, plus 20 μL (1 mg/mL tested compounds) respectively 7.5 μL (10 mg/mL tested compounds ) of the test compounds were added to first row. C ontrols (one compound/column) were added as well: MeOH were used as solvent control, while different positive controls (reference drugs ) were used for the according test organisms (see table S1). Starting from row A, 150 μL of the suspension were transferred […]
(§4) to the next row, the contents thoroughly mixed, and 150 μL transferred to the following row. The remaining 150 μL after row H were discarded.
(§5) 66.7 μg/mL in row A to 0.52 μg/mL in row H (1 mg/mL tested compounds) or 250 μg/mL in row A to 2 μg/mL in row H (10 mg/mL tested compounds).
(§6) The 96-well microtiter plates were then incubated overnight on a microplate shaker at 800 rpm at 30 or 37 °C (see table S1) and were visually evaluated the next day. The MIC is defined as the lowest concentration where no growth of the test organism was observed. A lower MIC thus corresponds to a higher antimicrobial activity […]
(§7) Table S1: MIC assay experiment parameters.
(§8) Tested organisms Strain No. Growth Incubation Positive control medium temp. [°C ] (reference)
(§9) KB-3-1 (ACC 158) cervix carcinoma as well as L929 (ACC 2) mouse fibroblasts were cultured under standard cell culture conditions (37 °C, 5% CO2, 95% humidified atmosphere). The cells were maintained in high glucose DMEM containing 10% fetal bovine serum and 100 U/mL penicillin and streptomycin (Gibco, Thermo Fisher Scientific, Waltham, USA). Cell lines were serially passaged after trypsinization, using 0.05% trypsin / 0.02% EDTA solution. The cultures were routinely monitored for potential contamination, and only mycoplasma free cultures were used. The test compounds were investigated for their anti-proliferative effect on cell lines, using the 3-(4,5-dimethylthiazol-2-yl)-2,5-diphenyltetrazolium bromide (MTT) based cell viability assay. […]

The subject of assay [1] is C. albicans CAI-4 HWP1-lacZ [ZK3379]. Put plainly: MIC assay, C. albicans CAI-4 HWP1-lacZ. The class given is cell-based, Candida albicans. As to conditions: tested 250–2 µg/mL. The protocol:
as §1, §2, §3, §4, §5, §6, §7, §8, §9

A further assay relates to C. auris [DSM 21092]. As to the kind of experiment: MIC assay, C. auris. It counts as cell-based, Candida auris. Particulars: tested 250–2 µg/mL. The protocol:
as §1, §2, §3, §4, §5, §6, §7, §8, §9

The test system of a further assay is C. auris biofilm. Put plainly: Crystal violet biofilm formation assay, C. auris. The class given is cell-based, Candida auris. As to conditions: for effect on formation of C. auris biofilms: CV assay, 24 h treatment. The procedure:
The fungal pathogens C. auris [[…]] or C. albicans [DSM 11225] were cultured from stock in 25 mL YPD medium in a 250 mL flask (30 °C, 100 rpm, 18 h). The turbidity of the broth was measured at 280 nm using a spectrophotometer (Nanodrop 2000c, Thermo Fisher Scientific, Waltham, MA, USA) and diluted to match the turbidity of a 0.5 McFarland standard in RPMI 1640 medium (Gibco, New York, NY, USA; Thermo Fisher Scientific), supplemented with […] 3-(N-morpholino)propanesulfonic acid (MOPS, Carl Roth, Karlsruhe, Germany) for C. auris, or 0.05 McFarland standard in RPMI 1640 medium in the case of C. albicans. Subsequently, 150 μL of the fungal dispersion were added into each well of a 96-well microtiter plate (Falcon no. 351172, Thermo Fisher Scientific) and further incubated (37 °C, 150 rpm, 2 h [C. auris] or 90 min [C. albicans]). The supernatant was discarded and the plate was rinsed one time by using a PBS buffer. Afterwards, azaphilones (Rub A, C, W, Z, and Rut A and B) were serially diluted in 150 μL in fresh medium to concentrations of 250–2 μg/mL (Rub C for C. auris: 250–0.02 μg/mL). Methanol (2.5%) was used as a solvent control and both, nystatin (NYS; Thermo Fisher Scientific) and farnesol (FA; Sigma Aldrich, St. Louis, MO, USA) as positive controls (250–2 μg/mL) for C. auris and C. albicans, respectively. Plates were further incubated (37 °C, 150 rpm, 24 h). The supernatant was discarded and biofilms were washed with PBS, stained by adding 150 μL of the crystal violet (CV; Sigma Aldrich) solution (0.1%), and incubated (room temperature, 25 min). Afterwards, the plates were washed twice with PBS buffer. A total of 150 μL ethanol (95%) were applied to dissolve the biofilm-bound CV. The absorbance was measured by a plate reader (Synergy 2, BioTek, Santa Clara, CA, USA) at 570 nm for C. auris or 610 nm for C. albicans. Error bars indicate SD with duplicates in two biological repeats.

For the next assay, the system named is C. albicans [DSM 1665]. Set-up: method as in doi:10.1002/ejoc.202001661. As to conditions: highest tested concentration 250 µg/mL; cited from earlier work.

What is called MIC is the lowest concentration found to suppress growth. Consider `CC(=O)OC/C=C/C1=CC2=C(CO1)C(=O)[C@@](C)(OC(=O)c1c(C)cc(O)cc1O)C(=O)/C2=C\C=C\C1=CC2=C(CO1)C(=O)[C@@](C)(O)[C@@H](OC(=O)c1c(C)cc(O)cc1O)C2` [Rut A, rutilin A], for which the MIC result (in the assay on C. albicans [DSM 11225]; in assay [1]; in the assay with C. auris [DSM 21092]; in the assay on C. albicans [DSM 1665]) was “no antimicrobial activity” in each case. Moreover, the “effect on formation of C. auris biofilms” value in the assay with C. auris biofilm was “did not affect the formation”.

For `C[C@@H]1[C@H](O)[C@@H](C)/C=C/C=C/CC/C=C/C=C/C=C/C=C/C(O[C@H]2O[C@H](C)[C@@H](O)[C@H](N)[C@@H]2O)CC2O[C@](O)(CC(O)C(O)CCC(O)CC(O)CC(O)CC(=O)O[C@H]1C)CC(O)C2C(=O)O` (stereo partly shown) [Nystatin, nystatin], the MIC against C. albicans [DSM 11225] was 8.3 µg/mL (≈ 8.96 µM); in assay [1] it was 8.3 µg/mL (≈ 8.96 µM); in the assay with C. auris [DSM 21092], 31.3 µg/mL (≈ 33.8 µM); in the assay on C. albicans [DSM 1665] it was 8.3 µg/mL (≈ 8.96 µM). Also, the “inhibition of C. auris biofilm formation compared to solvent control (= 0%)” value is on record as “/ ((/) no activity)” in the assay with C. auris biofilm (2 µg/mL); 60 ±10% in the assay on C. auris biofilm (3.9 µg/mL); 42 ±15% in the assay with C. auris biofilm (7.8 µg/mL); 47 ±2% in the assay with C. auris biofilm (15.6 µg/mL); 50 ±10% in the assay on C. auris biofilm (31.3 µg/mL); 53 ±8% in the assay with C. auris biofilm (62.5 µg/mL). Moreover, the figures for the “inhibition of C. auris biofilm formation compared to solvent control (= 0%)” value with C. auris biofilm (125 µg/mL) and in the assay on C. auris biofilm (250 µg/mL) were 45 ±10% and 56 ±2%, respectively.

In the case of `CC(=O)OC/C=C/C1=CC2=C(CO1)C(=O)[C@@](C)(OC(=O)c1c(C)cc(O)cc1O)C(=O)/C2=C\C=C\C1=CC2=C(CO1)C(=O)[C@@](C)(OC(=O)c1c(C)cc(O)cc1O)[C@@H](O)C2` [Rut B, rutilin B], the MIC entry (with C. albicans [DSM 11225]; in assay [1]; against C. auris [DSM 21092]; in the assay on C. albicans [DSM 1665]) was “no antimicrobial activity” in each case. In addition, the “effect on formation of C. auris biofilms” value in the assay on C. auris biofilm is recorded as “did not affect the formation”.
